What was measured:
rats [1] = experiment: Passive Avoidance in Rats, an in vivo Test for Learning and Memory; set-up: species or system rat; conditions: MK-801 0.1 mg/kg, compared to the vehicle, p<0.001, 24 hours after shock
Protocol: The test was performed as previously described (Zhang, H.-T., Crissman, A. M., Dorairaj, N. R., Chandler, L. J., and O'Donnell, J. M., Neuropsychopharmacology, 2000, 23, 198-204.). The apparatus (Model E10-16SC, Coulbourn Instruments, Allentown, Pa.) consisted of a two-compartment chamber with an illuminated compartment connected to a darkened compartment by a guillotine door. The floor of the darkened compartment consisted of stainless steel rods through which an electric foot-shock could be delivered from a constant current source. All experimental groups were first habituated to the apparatus the day before the start of the experiment. During the training, the rat (Male Spraque-Dawley (Harlan) weighing 250 to 350 g) was placed in the illuminated compartment facing away from the closed guillotine door for 1 minute before the door was raised. The latency for entering the darkened compartment was recorded. After the rat entered the darkened compartment, the door was closed and a 0.5 mA electric shock was administered for 3 seconds. […] The latency for entering the darkened compartment was recorded for up to 180 seconds, at which time the trial was terminated.
(§1) All data were analyzed by analyses of variance (ANOVA); individual comparisons were made using Kewman-Keuls tests. […]

rats [2] = experiment: Radial Arm Maze Task in Rats, an In Vivo Test for Learning and Memory; set-up: species or system rat; conditions: MK-801 0.1 mg/kg i.p., compared to control, p<0.01
Protocol: The test was performed as previously described (Zhang, H.-T., Crissman, A. M., Dorairaj, N. R., Chandler, L. J., and O'Donnell, J. M., Neuropsychopharmacology, 2000, 23, 198-204.). Five days after initial housing, rats (male Spraque-Dawley (Harlan) weighing 250 to 350 g) were placed in the eight-arm radial maze (each arm was 60×10×12 cm high; the maze was elevated 70 cm above the floor) for acclimation for two days. Rats were then placed individually in the center of the maze for 5 minutes with food pellets placed close to the food wells, and then, the next day, in the wells at the end of the arms; 2 sessions a day were conducted. Next, four randomly selected arms were then baited with one pellet of food each. The rat was restricted to the center platform (26 cm in diameter) for 15 seconds and then allowed to move freely throughout the maze until it collected all pellets of food or 10 minutes passed, whichever came first. Four parameters were recorded: 1) working memory errors, i.e., entries into baited arms that had already been visited during the same trial; 2) reference memory errors, i.e., entries into unbaited arms; 3) total arm entries; and 4) the test duration (seconds), i.e., the time spent in the collection of all the pellets in the maze. […]
as §1

For C[C@]12N[C@H](Cc3ccccc31)c1ccccc12 [MK-801], the “latency for entering the darkened compartment” value (rats [1]) was “markedly reduced this latency” and the “frequencies of working and reference memory errors” value (rats [2]) was “increased the frequencies of both working and reference memory errors”.

Source: US7700631B2, “Phosphodiesterase 4 inhibitors” (Memory Pharmaceuticals Corporation, priority 2002, dated 2010)
